Measured values as given in patent publication EP1247803A2, “Indolinone compounds suitable for modulation of protein kinases” (Sugen, Inc., priority 1996, dated 1998).

What was measured:
EGFR = target: T1, EGFR (Homo sapiens, UniProt P00533); assay: EGFR ELISA assay (in vitro kinase activity, EGFR captured from A431 cell lysate); type: biochemical; set-up: concentration or dose not given beside the values
T1 construct: Add 7 ug A431 cell lysate per well (EGFR source); endogenous in cells; host or cells: A431
Procedure, shortened: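 EGFR from A431 lysate was captured on anti-EGFR antibody-coated plates and preincubated with compounds for 30 min. Autophosphorylation ran 5 min with 3 uM ATP and 5 mM MnCl2 (final), stopped with 20 mM EDTA. Phosphotyrosine was detected by anti-pTyr ELISA with ABTS/H2O2, read at 410 nm.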

MET = MET biochemical kinase assay; set-up: species or system human; concentration or dose not given beside the values
Procedure, shortened: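 Colorimetric signal from an HRP-linked anti-phosphotyrosine antibody with TMB measures phosphate incorporated into immobilised MET. The receptor is pulled from lysates by a polyclonal antibody against its cytoplasmic domain, then reacts in ATP- and metal-containing buffer with test compound.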

T1 sequence (P00533 25-1210): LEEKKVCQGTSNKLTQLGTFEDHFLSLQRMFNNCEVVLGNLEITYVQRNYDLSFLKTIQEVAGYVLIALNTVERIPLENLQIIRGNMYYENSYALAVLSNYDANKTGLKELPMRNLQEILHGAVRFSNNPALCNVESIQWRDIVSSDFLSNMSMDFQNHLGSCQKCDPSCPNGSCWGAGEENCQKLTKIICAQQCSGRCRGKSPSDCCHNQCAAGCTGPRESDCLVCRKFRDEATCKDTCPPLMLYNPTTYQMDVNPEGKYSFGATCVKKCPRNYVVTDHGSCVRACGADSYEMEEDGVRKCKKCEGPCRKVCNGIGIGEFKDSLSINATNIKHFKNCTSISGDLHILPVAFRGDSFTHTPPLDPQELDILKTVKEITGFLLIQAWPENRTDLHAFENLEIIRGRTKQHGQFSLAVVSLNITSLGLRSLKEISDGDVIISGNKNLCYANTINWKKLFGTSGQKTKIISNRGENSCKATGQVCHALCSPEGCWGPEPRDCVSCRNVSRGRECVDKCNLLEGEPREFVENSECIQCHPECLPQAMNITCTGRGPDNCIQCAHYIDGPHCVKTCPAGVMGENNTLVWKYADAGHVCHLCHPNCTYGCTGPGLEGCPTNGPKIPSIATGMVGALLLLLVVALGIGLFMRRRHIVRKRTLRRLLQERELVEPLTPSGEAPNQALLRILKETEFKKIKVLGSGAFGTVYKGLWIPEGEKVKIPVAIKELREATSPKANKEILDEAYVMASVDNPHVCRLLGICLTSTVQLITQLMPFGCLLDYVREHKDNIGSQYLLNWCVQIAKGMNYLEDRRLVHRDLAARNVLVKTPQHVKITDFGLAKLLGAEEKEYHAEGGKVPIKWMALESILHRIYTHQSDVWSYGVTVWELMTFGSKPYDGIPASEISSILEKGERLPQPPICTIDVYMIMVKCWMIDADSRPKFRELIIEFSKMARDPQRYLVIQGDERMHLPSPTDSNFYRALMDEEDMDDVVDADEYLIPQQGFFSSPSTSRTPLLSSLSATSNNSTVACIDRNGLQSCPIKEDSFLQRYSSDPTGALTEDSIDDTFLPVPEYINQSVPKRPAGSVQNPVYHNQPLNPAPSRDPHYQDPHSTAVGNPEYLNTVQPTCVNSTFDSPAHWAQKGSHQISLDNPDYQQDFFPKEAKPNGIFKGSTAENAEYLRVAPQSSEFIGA

SMILES | Biochem EGFR %Inhibition (EGFR) [%] | Met Kinase % Inhibition (MET) [%]
CNS(=O)(=O)c1ccc2c(c1)C(=Cc1ccc(O)c(C)c1)C(=O)N2 [10723/D06] | -7.4 | 60.0
CNS(=O)(=O)c1ccc2c(c1)C(=Cc1ccccc1Br)C(=O)N2 [10723/D07] | 13.4 | 21.9
CNS(=O)(=O)c1ccc2c(c1)C(=Cc1ccc(O)cc1O)C(=O)N2 [10723/D08] | 4.9 | 53.5
CNS(=O)(=O)c1ccc2c(c1)C(=Cc1ccc(OC)cc1O)C(=O)N2 [10723/D09] | -3.8 | 62.6
CNS(=O)(=O)c1ccc2c(c1)C(=Cc1cccc(Br)c1)C(=O)N2 [10723/D10] | -9.3 | 38.1
CNS(=O)(=O)c1ccc2c(c1)C(=Cc1cc(C(C)(C)C)cc(C(C)(C)C)c1O)C(=O)N2 [10723/D11] | -6.2 | 42.0
O=C1Nc2ccc(S(=O)(=O)Nc3ccc(C(F)(F)F)cc3)cc2C1=Cc1ccc(O)c(O)c1O [10723/E02] | 91.0 | 97.9
COc1cccc(C=C2C(=O)Nc3ccc(S(=O)(=O)Nc4ccc(C(F)(F)F)cc4)cc32)c1O [10723/E03] | 8.3 | 76.8
O=C1Nc2ccc(S(=O)(=O)Nc3ccc(C(F)(F)F)cc3)cc2C1=Cc1cc(O)c(O)c(Br)c1 [10723/E04] | 59.8 | 94.5
CC(=O)Oc1ccc(C=C2C(=O)Nc3ccc(S(=O)(=O)Nc4ccc(C(F)(F)F)cc4)cc32)cc1OC(C)=O [10723/E05] | -15.6 | 63.7
Cc1cc(C=C2C(=O)Nc3ccc(S(=O)(=O)Nc4ccc(C(F)(F)F)cc4)cc32)ccc1O [10723/E06] | 11.5 | 74.4
O=C1Nc2ccc(S(=O)(=O)Nc3ccc(C(F)(F)F)cc3)cc2C1=Cc1ccccc1Br [10723/E07] | 38.1 | 47.7
O=C1Nc2ccc(S(=O)(=O)Nc3ccc(C(F)(F)F)cc3)cc2C1=Cc1ccc(O)cc1O [10723/E08] | 52.6 | 89.3
COc1ccc(C=C2C(=O)Nc3ccc(S(=O)(=O)Nc4ccc(C(F)(F)F)cc4)cc32)c(O)c1 [10723/E09] | 29.1 | 91.7
O=C1Nc2ccc(S(=O)(=O)Nc3ccc(C(F)(F)F)cc3)cc2C1=Cc1cccc(Br)c1 [10723/E10] | -7.9 | 59.5
CC(C)(C)c1cc(C=C2C(=O)Nc3ccc(S(=O)(=O)Nc4ccc(C(F)(F)F)cc4)cc32)c(O)c(C(C)(C)C)c1 [10723/E11] | -44.6 | 50.1
O=C1Nc2ccc(S(=O)(=O)N3CCOCC3)cc2C1=Cc1ccc(O)c(O)c1O [10723/F02] | 70.4 | 99.0
COc1cccc(C=C2C(=O)Nc3ccc(S(=O)(=O)N4CCOCC4)cc32)c1O [10723/F03] | 9.3 | 78.3
O=C1Nc2ccc(S(=O)(=O)N3CCOCC3)cc2C1=Cc1cc(O)c(O)c(Br)c1 [10723/F04] | 17.5 | 94.0
CC(=O)Oc1ccc(C=C2C(=O)Nc3ccc(S(=O)(=O)N4CCOCC4)cc32)cc1OC(C)=O [10723/F05] | -3.8 | 45.6
O=C1Nc2ccc(CCCl)cc2C1=Cc1ccc(O)c(O)c1O [10723/G02] | 90.8 | 99.2
COc1cccc(C=C2C(=O)Nc3ccc(CCCl)cc32)c1O [10723/G03] | 18.5 | 74.7
O=C1Nc2ccc(CCCl)cc2C1=Cc1cc(O)c(O)c(Br)c1 [10723/G04] | 16.7 | 85.9
CC(=O)Oc1ccc(C=C2C(=O)Nc3ccc(CCCl)cc32)cc1OC(C)=O [10723/G05] | 1.3 | 79.9
Cc1cc(C=C2C(=O)Nc3ccc(CCCl)cc32)ccc1O [10723/G06] | -26.7 | 64.5
O=C1Nc2ccc(CCCl)cc2C1=Cc1ccccc1Br [10723/G07] | 15.5 | 43.0
O=C1Nc2ccc(CCCl)cc2C1=Cc1ccc(O)cc1O [10723/G08] | 0.1 | 79.9
COc1ccc(C=C2C(=O)Nc3ccc(CCCl)cc32)c(O)c1 [10723/G09] | -32.6 | 80.7
